The assay concerns the target C-Raf FL (full length CRAF with Y340E and Y341E activating mutations, co-expressed with h14-3-3 zeta) (Homo sapiens (Human), UniProt P04049, Y340E/Y341E). Nature of the assay: In vitro Raf activity determination, AlphaScreen p-MEK readout, c-Raf (C-Raf FL). Particulars: c-Raf approximately 4 nM, ATP 1 μM, pre-incubation 60 minutes, reaction 1 hour. The class given is biochemical. The text has this: Sf9 cells co-expressing both proteins were lysed and subjected to immobilized nickel chromatography and eluted with Imidazole. A second column (StrepII binding column) was used and eluted with desthiobiotin. Protein Tags were removed using Prescission enzyme and the protein was further purified using a flowthrough step to remove tags.
C-Raf TR refers to a truncated C-Raf protein, a Δ1-324 deletion mutant. C-Raf FL refers to the full-length C-Raf protein.
Full length MEK1 with an inactivating K97R ATP binding site mutation is utilized as a RAF substrate. The MEK1 cDNA was subcloned with an N-terminal (his)6 tag into a vector for E. Coli expression. The MEK1 substrate was purified from E. Coli lysate by nickel affinity chromatography followed by anion exchange. The final MEK1 preparation was biotinylated (Pierce EZ-Link Sulfo-NHS-LC-Biotin) and concentrated.
Assay Materials: Assay buffer is 50 mM Tris, pH 7.5, 15 mM MgCl2, 0.01% Bovine Serum Albumin (BSA) and 1 mM dithiothreitol (DTT); Stop buffer is 60 mM ethylenediaminetetraacetic acid (EDTA) and 0.01% Tween® 20; b-Raf (V600E), active; biotinylated Mek, kinase dead; Alpha Screen detection kit (available from PerkinElmer™, #6760617R); Anti phospho-MEK1/2 (available from Cell Signaling Technology, Inc. #9121); 384 well low volume assay plates (White Greiner® plates).
Assay conditions: b-Raf (V600E) approximately 4 pM; c-Raf approximately 4 nM; biotinylated Mek, kinase dead approximately 10 nM; ATP 10 μM for BRAF (V600E) and 1 μM for CRAF; Pre-incubation time with compounds 60 minutes at room temperature; Reaction time 1 or 3 hours at room temperature.
Assay protocol: Raf and biotinylated Mek (kinase dead) were combined at 2× final concentrations in assay buffer (50 mM Tris, pH 7.5, 15 mM MgCl2, 0.01% BSA and 1 mM DTT) and dispensed […] per well in assay plates (Greiner white 384 well assay plates #781207) containing […] of 40× of a Raf kinase inhibitor test compound diluted in 100% DMSO. The plate was incubated for 60 minutes at room temperature. The Raf kinase activity reaction was started by the addition of […] per well of 2×ATP diluted in assay buffer. After 3 hours (b-Raf(V600E)) or 1 hour (c-Raf). The reactions were stopped and the phosphorylated product was measured using a rabbit anti-p-MEK (Cell Signaling, #9121) antibody and the Alpha Screen IgG (ProteinA) detection Kit (PerkinElmer #6760617R), by the addition of […] to the well of a mixture of the antibody (1:2000 dilution) and detection beads (1:2000 dilution of both beads) in Stop/bead buffer (25 mM EDTA, 50 mM Tris, pH 7.5, 0.01% Tween20). The additions were carried out under dark conditions to protect the detection beads from light. A lid was placed on top of the plate and incubated for 1 hour at room temperature, after which the luminescence was read on a PerkinElmer Envision instrument.
On the technique in general: Alpha assays give light when donor and acceptor beads are brought close together.

C-Raf FL (full length CRAF with Y340E and Y341E activating mutations, co-expressed with h14-3-3 zeta), sequence (P04049 whole entry Y340E/Y341E, the tested form may be a part): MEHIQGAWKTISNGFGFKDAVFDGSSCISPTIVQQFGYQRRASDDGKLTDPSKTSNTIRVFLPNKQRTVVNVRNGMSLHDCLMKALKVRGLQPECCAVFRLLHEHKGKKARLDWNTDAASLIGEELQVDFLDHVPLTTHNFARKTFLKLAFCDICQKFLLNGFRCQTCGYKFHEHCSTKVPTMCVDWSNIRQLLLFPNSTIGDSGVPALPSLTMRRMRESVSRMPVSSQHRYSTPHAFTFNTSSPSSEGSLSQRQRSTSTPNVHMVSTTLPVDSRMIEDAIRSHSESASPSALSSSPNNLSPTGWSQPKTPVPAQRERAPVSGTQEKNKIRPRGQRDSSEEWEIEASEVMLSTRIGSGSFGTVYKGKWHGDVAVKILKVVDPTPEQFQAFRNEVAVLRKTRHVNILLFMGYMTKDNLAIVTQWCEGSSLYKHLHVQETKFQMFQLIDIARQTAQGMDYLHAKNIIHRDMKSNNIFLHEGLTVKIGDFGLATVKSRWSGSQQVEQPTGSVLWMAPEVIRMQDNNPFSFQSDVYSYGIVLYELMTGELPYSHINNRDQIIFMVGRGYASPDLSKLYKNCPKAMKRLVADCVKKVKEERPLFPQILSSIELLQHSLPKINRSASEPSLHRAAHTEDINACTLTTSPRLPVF
C-Raf FL (full length CRAF with Y340E and Y341E activating mutations, co-expressed with h14-3-3 zeta), sequence (P63104 whole entry partner, the tested form may be a part): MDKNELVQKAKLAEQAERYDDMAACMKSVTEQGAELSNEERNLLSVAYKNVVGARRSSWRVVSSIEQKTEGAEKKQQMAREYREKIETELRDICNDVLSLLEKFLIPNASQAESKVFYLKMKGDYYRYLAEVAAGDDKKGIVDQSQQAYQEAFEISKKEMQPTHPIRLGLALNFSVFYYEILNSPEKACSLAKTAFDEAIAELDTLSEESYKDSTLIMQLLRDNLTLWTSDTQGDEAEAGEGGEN

Turning to `Cc1ccc(NC(=O)c2ccnc(C(C)(F)F)c2)cc1-c1ccc2c(c1)N1CCOCC1C(CO)(CO)C2` (racemic) [Example 50, (rac)-N-(3-(5,5-bis(hydroxymethyl)-1,2,4,4a,5,6-hexahydro-[1,4]oxazino[4,3-a]quinolin-9-yl)-4-methylphenyl)-2-(1,1-difluoroethyl)isonicotinamide], the IC50 (usually the concentration that gives 50% inhibition) came out at 0.013 nM.
`Cc1ccc(NC(=O)c2ccnc(C(F)(F)F)c2F)cc1-c1cnc2c(c1)N1CCOC[C@H]1C[C@H]2OCCO` [Example 510, 3-fluoro-N-(3-((4aR,6R)-6-(2-hydroxyethoxy)-1,2,4,4a,5,6-hexahydro-[1,4]oxazino[4,3-a][1,5]naphthyridin-9-yl)-4-methylphenyl)-2-(trifluoromethyl)iso-nicotinamide] returned an IC50 of 0.1 nM.
Then `Cc1ncc(NC(=O)c2cccc(C(F)(F)F)c2)cc1-c1ccc2c(c1)N1CCOCC1C1(COC1)C2` (racemic) [Example 56, (rac)-N-(6-methyl-5-(2,4,4a,6-tetrahydro-1H-spiro[[1,4]oxazino[4,3-a]quinoline-5,3′-oxetan]-9-yl)pyridin-3-yl)-3-(trifluoromethyl)benzamide], with 0.071 nM; and `Cc1ccc(NC(=O)c2ccnc(C(C)(F)F)c2)cc1-c1cc(F)c2c(c1)N1CCOC[C@H]1[C@](F)(CO)C2` [Example 420, N-(3-((4aS,5S)-5,7-difluoro-5-(hydroxymethyl)-1,2,4,4a,5,6-hexahydro-[1,4]oxazino[4,3-a]quinolin-9-yl)-4-methylphenyl)-2-(1,1-difluoroethyl)isonicotinamide], with 0.6 nM.
`Cc1ccc(NC(=O)c2ccnc(C(F)(F)F)c2F)cc1-c1cnc2c(c1)C1CCOCC1OC(=O)N2CCO` (stereo not drawn) [Example 331, 3-fluoro-N-(3-((4,11b-cis)-7-(2-hydroxyethyl)-6-oxo-2,4,4a,6,7,11b-hexahydro-1H-pyrano[4,3-f]pyrido[2,3-d][1,3]oxazepin-10-yl)-4-methylphenyl)-2-(trifluoromethyl) isonicotinamide]: the IC50 was 6.6 nM.
As for `Cc1ccc(NC(=O)c2ccnc(C(F)(F)F)c2F)cc1-c1cnc2c(c1)[C@@H]1CCOC[C@H]1C(=O)N2CCO` [Example 307, 3-fluoro-N-(3 - ((4aS, 10bR)-6-(2-hydroxyethyl)-5-oxo-2,4,4a,5,6,10b-hexahydro-1H-pyrano[3,4-c][1,8]naphthyridin-9-yl)-4-methylphenyl)-2-(trifluoromethyl) isonicotinamide], the IC50 stood at 0.1 nM. This IC50 is about 66-fold lower than that of the compound before.
The compound `CCN1C(=O)C[C@@H]2COCCN2c2cc(-c3cc(NC(=O)c4cnnc(C(F)(F)F)c4)ccc3C)cnc21` [Example 325, (R)-N-(3-(7-ethyl-6-oxo-2,4,4a,5,6,7-hexahydro-1H-[1,4]oxazino[4,3-d]pyrido[2,3-b][1,4]diazepin-10-yl)-4-methylphenyl)-6-(trifluoromethyl) pyridazine-4-carboxamide] came in with an IC50 of 0.1 nM. In other words, the sub-nanomolar range.
Then `Cc1ccc(NC(=O)c2ccnc(C(F)(F)F)c2F)cc1-c1cnc2c(c1)N1CCOCC1C(C)(C)C2O` (centres unmarked) [Example 336, 3-fluoro-N-(3-(6-hydroxy-5,5-dimethyl-1,2,4,4a,5,6-hexahydro-[1,4]oxazino[4,3-a][1,5]naphthyridin-9-yl)-4-methylphenyl)-2-(trifluoromethyl) isonicotinamide], with 0.2 nM; and `CCN1C(=O)CC2COCCN2c2cc(-c3cc(NC(=O)c4ccnc(C(F)(F)F)c4)ccc3C)cnc21` (racemic) [Example 128, rac-N-(3-(7-Ethyl-6-oxo-1,2,4a,5,6,7-hexahydro-4H-[1,4]oxazino[4,3-d]pyrido[2,3-b][1,4]diazepin-10-yl)-4-methylphenyl)-2-(trifluoromethyl)isonicotinamide], with 0.023 nM; and `CO[C@@H]1C[C@@H]2COCCN2c2cc(-c3cc(NC(=O)c4ccnc(C(F)(F)F)c4)ccc3C)ccc21` (racemic) [Example 30, (rac)-(trans)-N-(3-(6-methoxy-1,2,4,4a,5,6-hexahydro-[1,4]oxazino[4,3-a]quinolin-9-yl)-4-methylphenyl)-2-(trifluoromethyl)isonicotinamide], with 0.18 nM.
To `Cc1ncc(NC(=O)c2cccc(C(F)(F)F)c2)cc1-c1cnc2c(c1)N1CCOC[C@@H]1[C@@H](C(C)(C)O)C2` [Example 455, N-(5-((4aS,5S)-5-(2-hydroxypropan-2-yl)-1,2,4,4a,5,6-hexahydro-[1,4]oxazino[4,3-a][l,5]naphthyridin-9-yl)-6-methylpyridin-3-yl)-3-(trifluoro-methyl)benzamide] belongs 1.3 nM; to `Cc1ccc(NC(=O)c2ccnc(C(F)(F)F)c2)cc1-c1cnc2c(c1)N1CCOCC1CC2N` (racemic) [Example 171, rac-N-(3-(6-amino-1,2,4,4a,5,6-hexahydro-[1,4]oxazino[4,3-a][1,5]naphthyridin-9-yl)-4-methylphenyl)-2-(trifluoromethyl)isonicotinamide], 0.019 nM; to `Cc1ncc(NC(=O)c2cccc(C(F)(F)F)c2)cc1-c1cnc2c(c1)N1CCOC[C@H]1[C@@H](C(C)(C)O)C2` [Example 452, N-(5-((4aR,5S)-5-(2-hydroxypropan-2-yl)-1,2,4,4a,5,6-hexahydro-[1,4]oxazino[4,3-a][1,5]naphthyridin-9-yl)-6-methylpyridin-3-yl)-3-(trifluoro-methyl)benzamide], 0.5 nM.
To `Cc1ccc(NC(=O)c2ccnc(C(C)(F)F)c2)cc1-c1ccc2c(c1)N1CCOC[C@@H]1[C@@](F)(CO)C2` [Example 370, 2-(1,1-difluoroethyl)-N-(3-((4aR,5R)-5-fluoro-5-(hydroxymethyl)-1,2,4,4a,5,6-hexahydro-[1,4]oxazino[4,3-a]quinolin-9-yl)-4-methylphenyl)isonicotinamide] belongs 0.1 nM; to `Cc1ccc(NC(=O)c2ccnc(C(C)(F)F)c2)cc1-c1ccc2c(c1)N1CCOC[C@H]1[C@H](C#N)C2` (racemic) [Example 90, (rac)-N-(3-(5-cyano-1,2,4,4a,5,6-hexahydro-[1,4]oxazino[4,3-a]quinolin-9-yl)-4-methylphenyl)-2-(1,1-difluoroethyl)isonicotinamid], 0.023 nM; to `Cc1ccc(NC(=O)c2cncc(C(F)(F)F)c2)cc1-c1cnc2c(c1)[C@@H]1CCOC[C@H]1C(=O)N2CCO` [Example 306, N-(3-((4aS,10bR)-6-(2-hydroxyethyl)-5-oxo-2,4,4a,5,6,10b-hexahydro-1H-pyrano[3,4-c][1,8]naphthyridin-9-yl)-4-methylphenyl)-5-(trifluoromethyl) nicotinamide], 0.1 nM.
As for `Cc1ccc(NC(=O)c2cncc(C(F)(F)F)c2)cc1-c1cc2c(cc1F)C[C@@](F)(CO)[C@@H]1COCCN21` [Example 486, N-(3-((4aS,5S)-5,8-difluoro-5-(hydroxymethyl)-1,2,4,4a,5,6-hexahydro-[1,4]oxazino[4,3-a]quinolin-9-yl)-4-methylphenyl)-5-(trifluoromethyl) nicotinamide], it took 1.6 nM to reach half-maximal inhibition (IC50).
Then `CC[C@@H]1Oc2nnc(-c3cc(NC(=O)c4ccnc(C(C)(F)F)c4)ccc3C)cc2N2CCOC[C@@H]12` [Example 534, 2-(1,1-difluoroethyl)-N-(3-((6S,6aS)-6-ethyl-6a,7,9,10-tetrahydro-6H-[1,4]oxazino[4,3-d]pyridazino[3,4-b][1,4]oxazin-2-yl)-4-methylphenyl)isonicotinamide], with 0.1 nM.
Then `Cc1ccc(NC(=O)c2ccnc(C(F)(F)F)c2)cc1-c1cc(F)c2c(c1)N1CCOC[C@H]1[C@](F)(CO)C2` [Example 419], with 0.5 nM; and `Cc1ncc(NC(=O)c2cccc(C(F)(F)F)c2)cc1-c1ccc2c(c1)N1CCOCC1C(CO)C2` (racemic) [Example 61, (rac)-N-(5-(5-(hydroxymethyl)-1,2,4,4a,5,6-hexahydro-[1,4]oxazino[4,3-a]quinolin-9-yl)-6-methylpyridin-3-yl)-3-(trifluoromethyl)benzamide], with 0.033 nM.

Values taken from patent publication US10377770B2 (Novartis AG, priority 2015, dated 2019).
